US6391876B1 (Pharmacia and Upjohn Company, priority 1998, dated 2002)

Tests used:
[1] = test system: patients with panic Disorder with or without Agoraphobia
[2] = test system: muscarinic cholinergic receptors; assay: interaction with muscarinic cholinergic receptors; assay type: binding
[3] = test system: patients with a DSM-III-R diagnosis of Obsessive Compulsive Disorder; assay: trial in patients with Obsessive Compulsive Disorder; assay type: in vivo, human; settings: 10 OCD patients, 3 to 4 weeks, 6 mg first week then 8 mg per day
I-adrenerigic receptors = assay: interaction with I-adrenerigic receptors; assay type: binding
[4] = in vivo; cited from earlier work
norepinephrine uptake = test system: norepinephrine uptake
Text: (§1) Leonard-BE, “Noradrenaline in basic models of depression.” European-Neuropsychopharmacol. April 1997; 7 Suppl 1: S11-6; discussion S71-3.

monoamine oxidase (MAO) = test system: monoamine oxidase (MAO)
Text: as §1

dopamine uptake = test system: dopamine uptake
Text: as §1

serotonin uptake = test system: serotonin uptake
Text: as §1

[5] = vs placebo, at some point in time

## CCOc1ccccc1OC(c1ccccc1)C1CNCCO1 (stereo not drawn) [reboxetine]
[1]; 37 patients on reboxetine vs 38 on placebo
  mean number of major panic attacks: significantly lower than for those on placebo
[1]; [5]
  anticipatory anxiety: better
  phobic symptoms: better
  social and family adjustment: better
[2]
  interaction with muscarinic cholinergic receptors: without showing any appreciable interaction
[3]
  patients judged minimally improved at CGI last assessment: 2
  patients judged much improved at CGI last assessment: 4
  patients judged very much improved at CGI last assessment: one
  patients unchanged at CGI last assessment: 3
I-adrenerigic receptors
  interaction with I-adrenerigic receptors: without showing any appreciable interaction
[4]
  effect in the 8-OH-DPAT hypothermia test: ineffective
Norepinephrine uptake
  norepinephrine uptake inhibitory activity: highly selective norepinephrine uptake inhibitor
Monoamine oxidase (MAO)
  monoamine oxidase (MAO) inhibitory activity: devoid of monoamine oxidase (MAO) inhibitory activity
Dopamine uptake
  dopamine uptake inhibitory activity: no dopamine uptake inhibitory activity
Serotonin uptake
  serotonin uptake inhibitory activity: only marginal
